# Earlier results as cited in patent US20120288569A1 (priority 2003, published 2012).
# What was measured:
# [1] = test system: calcification in aortas and kidneys of rats; conditions: rats treated with large amount of vitamin D3
compound,measurement,setting,value
"O=P(O)(O)OP(=O)(O)O [PPi, pyrophosphate]",uptake by the apatite crystals,PPi at 2 μm/L concentration,rapidly and almost completely taken up
same,"concentration that binds strongly to crystals of hydroxyapatite, inhibiting further precipitation of calcium phosphate",in vitro,≥ 0.1 µM
same,effect on calcification in aortas and kidneys,[1],inhibits calcification
